Reference: ChEMBL document CHEMBL6109103, “Dodecapeptides derived from human cathelicidin with potent activity against carbapenem-resistant Acinetobacter baumannii” (Eur J Med Chem, 2025)
Residues, ends and D or L forms follow the SMILES beside them.

Experiments:
Format in all cases: organism-based
Conditions in all cases: in vivo, 72 h, time 3 day
[1] = Toxicity in BALB/c mouse assessed as heart damage at 16 mg/kg, ip measured for 3 days by H and E staining based analysis
[2] = Toxicity in BALB/c mouse assessed as liver damage at 16 mg/kg, ip measured for 3 days by H and E staining based analysis
[3] = Toxicity in BALB/c mouse assessed as spleen damage at 16 mg/kg, ip measured for 3 days by H and E staining based analysis
[4] = Toxicity in BALB/c mouse assessed as lung damage at 16 mg/kg, ip measured for 3 days by H and E staining based analysis

Measured: Activity

CC(C)CCCCC(=O)N[C@@H](CCN)C(=O)N[C@H](C(=O)N[C@@H](CCN)C(=O)N[C@H]1CCNC(=O)[C@H]([C@@H](C)O)NC(=O)[C@H](CCN)NC(=O)[C@H](CCN)NC(=O)[C@H](CC(C)C)NC(=O)[C@@H](Cc2ccccc2)NC(=O)[C@H](CCN)NC1=O)[C@@H](C)O.CC[C@H](C)CCCCC(=O)N[C@@H](CCN)C(=O)N[C@H](C(=O)N[C@@H](CCN)C(=O)N[C@H]1CCNC(=O)[C@H]([C@@H](C)O)NC(=O)[C@H](CCN)NC(=O)[C@H](CCN)NC(=O)[C@H](CC(C)C)NC(=O)[C@@H](Cc2ccccc2)NC(=O)[C@H](CCN)NC1=O)[C@@H](C)O (HELM PEPTIDE1{[CC[C@H](C)CCCCC(=O)[*:2]].[Dab].T.[Dab].[Dab].[Dab].[dF].L.[Dab].[Dab].T}$PEPTIDE1,PEPTIDE1,5:R3-11:R2$$$V2.0)
Non-toxic: [1] | [2] | [3] | [4]
